Laboratory results from patent US20110152229A1, “BETULINIC ACID DERIVATIVES AS ANTI-HIV AGENTS” (Duke University, priority 2006, published 2011).
Where two headings read alike, the source gives them in different places.

Key:
[1] = system: HIV-1 NL4-3; assay: Anti-HIV assay: HIV-1 NL4-3 replication in MT4 cells (p24 ELISA); type: cell-based
From the text: Anti-HIV assay: A previously known HIV-1 infectivity assay was used in the experiments (See Zhu, et al. Proc. Natl. Acad. Sci. U.S.A. 2001, 98, 15227). A 96-well microtiter plate was used to set up the HIV-1 NL4-3 replication assay. HIV-1 NL4-3 at a multiplicity of infection (MOI) of 0.01 was used to infect MT4 cells. Culture supernatants were collected on day 4 post infection for p24 assay using an ELISA kit from ZeptoMetrix Corporation (Buffalo, N.Y.). Cell fusion assay: TZM cells that express luciferase upon fusion with envelope-expressing COS cells were used as fusion partners. The fusion assays were performed by transfecting monkey kidney cells (COS) with the expression vector pSRHS that contains the HIV-1 NL4-3 envelope genes. Electroporation was performed to express the HIV-1 envelope on COS cells. Briefly, COS cells (10^6) in culture medium were incubated with 2 μg of the envelope expression vector on ice for 10 min. Electroporation was performed using a gene pulser (BioRad, Hercules, Calif.) with capacitance set at 950 μF and voltage at 150 V. The transfected COS cells were cultured for one day before mixing with TZM cells. TZM cells (10×10^4) were incubated with COS cells (10^4) in 96-well flat-bottomed plates (Costar) in 100 μl culture medium. Compounds to be tested at various concentrations in 10 μl of culture medium were incubated with the cell mixtures at 37° C. for 24 hours. A Promega luciferase assay kit was used to quantify luciferase activity in the fused cells using a Biotek luminometer. The drug concentration that reduced the control HIV-1 envelope-mediated fusion by 50% is defined as 50% effective concentration (EC50). HIV-1 maturation assay: MT4 cells (10^5 cells/mL) were infected with HIV-1 NL4-3 at a multiplicity of infection (MOI) of 0.01 infectious units/cells for three days. The culture medium was removed and the infected cells were resuspended at 5×10^5 cells/mL and treated with BA derivatives at various concentrations. The virions in the culture supernatant were collected one day after drug treatment. The viral particles were spun down and subjected to Western Blot analysis of p24 and p25 as previously described. (See Zhou, et al. J. Virol. 2004, 78, 922 and Zhou, et al., Retrovirology 2004, 1, 15.)
Table 1 illustrated the effect of compound 11, 16-20 and 18b against HIV-NL4-3 in MT4 cells.

[2] = system: MT4 cells; assay: Reduction of viable cells in a 4-day assay (MT4 cells); type: cell-based; details: Homo sapiens, read-out: IC50 (drug concentration that resulted in a 50% reduction of viable cells)
[3] = system: HIV-1 p25 processing; assay: HIV-1 maturation assay (Western blot of p24 and p25); type: cell-based; details: FIG. 2; p25 detected by Western blot
From the text: (§1) Anti-HIV assay: A previously known HIV-1 infectivity assay was used in the experiments (See Zhu, et al. Proc. Natl. Acad. Sci. U.S.A. 2001, 98, 15227). A 96-well microtiter plate was used to set up the HIV-1 NL4-3 replication assay. HIV-1 NL4-3 at a multiplicity of infection (MOI) of 0.01 was used to infect MT4 cells. Culture supernatants were collected on day 4 post infection for p24 assay using an ELISA kit from ZeptoMetrix Corporation (Buffalo, N.Y.). Cell fusion assay: TZM cells that express luciferase upon fusion with envelope-expressing COS cells were used as fusion partners. The fusion assays were performed by transfecting monkey kidney cells (COS) with the expression vector pSRHS that contains the HIV-1 NL4-3 envelope genes. Electroporation was performed to express the HIV-1 envelope on COS cells. Briefly, COS cells (10^6) in culture medium were incubated with 2 μg of the envelope expression vector on ice for 10 min. Electroporation was performed using a gene pulser (BioRad, Hercules, Calif.) with capacitance set at 950 μF and voltage at 150 V. The transfected COS cells were cultured for one day before mixing with TZM cells. TZM cells (10×10^4) were incubated with COS cells (10^4) in 96-well flat-bottomed plates (Costar) in 100 μl culture medium. […] A Promega luciferase assay kit was used to quantify luciferase activity in the fused cells using a Biotek luminometer. […]

[4] = system: HIV-1 NL4-3 envelope; assay: Cell fusion assay (luciferase-based; TZM cells with envelope-expressing COS cells); details: FIG. 1; TZM/COS fusion partners, luciferase readout
From the text: as §1

[5] = Human immunodeficiency virus 1, NL43, HIV-NL4-3 in MT4 cells, average of at least two experiments, read-out: EC50 (concentration that inhibits HIV-1 replication by 50%)
[6] = 96 h, cytotoxicity, 4-day assay, MT4 cells, average of at least two experiments
[7] = Human immunodeficiency virus 1, NL43, MT4, read-out: EC50 (concentration that inhibits HIV-1 replication by 50%)

SMILES | inhibition of NL4-3 replication ([1]; negative control, concentration not given) | EC50 [1, 5] [nM] | IC50 [2, 6] [nM] | melting point | anti-maturation activity: HIV-1 p25 processing [3] | EC50 [1, 7] [nM] | anti-fusion activity: HIV-1 envelope mediated membrane fusion [4] | IC50 ([2]; MT4, 96 h) [nM]
C=C(C)[C@@H]1CC[C@]2(C(=O)O)CC[C@]3(C)[C@H](CC[C@@H]4[C@@]5(C)CC[C@H](O)C(C)(C)[C@@H]5CC[C@]43C)[C@@H]12 [Betulinic acid] | did not inhibit |  |  |  |  |  |  | 
C=C(C)[C@@H]1CC[C@]2(C(=O)On3nnc4ccccc43)CC[C@]3(C)[C@H](CC[C@@H]4[C@@]5(C)CC[C@H](OC(=O)C(C)(C)CC(=O)O)C(C)(C)[C@@H]5CC[C@]43C)[C@@H]12 [Compound 11, O-[3β-O-(2′,2′-Dimethylsuccinyl)-lup-20(29)-en-28-oyl]-1-hydroxybenzotriazole] |  | 35 | 2500 | 151 to 154 °C |  |  |  | 
C=C(C)[C@@H]1CC[C@]2(C(=O)NCCCCCNC(C)=O)CC[C@]3(C)[C@H](CC[C@@H]4[C@@]5(C)CC[C@H](OC(=O)CC(C)(C)C(=O)O)C(C)(C)[C@@H]5CC[C@]43C)[C@@H]12 [Compound 16, [[N-[3β-O-(3′,3′-dimethylsuccinyl)-lup-20(29)-en-28-oyl]-5-aminopentyl]-carbamoyl]methane] |  | 12 | 9000 | 137 °C (dec.) |  |  |  | 
C=C(C)[C@@H]1CC[C@]2(C(=O)NCCCCCCNC(C)=O)CC[C@]3(C)[C@H](CC[C@@H]4[C@@]5(C)CC[C@H](OC(=O)CC(C)(C)C(=O)O)C(C)(C)[C@@H]5CC[C@]43C)[C@@H]12 [Compound 17, [[N-[3β-O-(3′,3′-Dimethylsuccinyl)-lup-20(29)-en-28-oyl]-6-aminohexyl]-carbamoyl]methane] |  | 7 | 7500 | 137 °C (dec.) |  |  |  | 
C=C(C)[C@@H]1CC[C@]2(C(=O)NCCCCCCCNC(C)=O)CC[C@]3(C)[C@H](CC[C@@H]4[C@@]5(C)CC[C@H](OC(=O)CC(C)(C)C(=O)O)C(C)(C)[C@@H]5CC[C@]43C)[C@@H]12 [Compound 18, [[N-[3β-O-(3′,3′-Dimethylsuccinyl)-lup-20(29)-en-28-oyl]-7-aminoheptyl]-carbamoyl]methane] |  |  |  | 117 to 120 °C | interfere with HIV-1 p25 processing | 2.6 | inhibits HIV-1 envelope mediated membrane fusion | 8000
C=C(C)[C@@H]1CC[C@]2(C(=O)NCCCCCCCNC(C)=O)CC[C@]3(C)[C@H](CC[C@@H]4[C@@]5(C)CC[C@H](O)C(C)(C)[C@@H]5CC[C@]43C)[C@@H]12 [Compound 18b, [[N-[3β-Hydroxy-lup-20(29)-en-28-oyl]-7-aminoheptyl]-carbamoyl]methane] |  |  |  |  |  | 47 | inhibits HIV-1 envelope mediated membrane fusion | > 10000
C=C(C)[C@@H]1CC[C@]2(C(=O)NCCCCCCCCNC(C)=O)CC[C@]3(C)[C@H](CC[C@@H]4[C@@]5(C)CC[C@H](OC(=O)CC(C)(C)C(=O)O)C(C)(C)[C@@H]5CC[C@]43C)[C@@H]12 [Compound 19, [[N-[3β-O-(3′,3′-Dimethylsuccinyl)-lup-20(29)-en-28-oyl]-8-aminooctyl]-carbamoyl]methane] |  | 3.6 | 7000 | 113 to 115 °C |  |  |  | 
C=C(C)[C@@H]1CC[C@]2(C(=O)NCCCCCCCCCNC(C)=O)CC[C@]3(C)[C@H](CC[C@@H]4[C@@]5(C)CC[C@H](OC(=O)CC(C)(C)C(=O)O)C(C)(C)[C@@H]5CC[C@]43C)[C@@H]12 [Compound 20, [[N-[3β-O-(3′,3′-Dimethylsuccinyl)-lup-20(29)-en-28-oyl]-9-aminonoyl]-carbamoyl]methane] |  | 12 | 7400 | 120 to 122 °C |  |  |  | 
